Measured values as given in patent publication US8466107B2, “Fibrin-binding peptides and conjugates thereof” (Bracco Imaging SpA, priority 2006, dated 2013).
Bridge positions count the residues as written; N and C are the ends.

Test system: neuroblastoma (Neuro-2a) tumor
Experiment: In vivo MRI test of fibrin imaging in neuroblastoma tumor mouse model
Details: mice with neuroblastoma tumor; 25 μmol/kg iv.; T1 weighted MRI at 2T, 4 h post injection
Source text: Three groups of 5 mice each, inoculated with 2·10^6 neuroblastoma cells with PBS, were formed and tested as follows: • Group a: Reference compound 2, • Group b: Chelate Complex 1 • Group c: ProHance® (see Protocol)
At day-10 post tumor cells inoculation, at least 4 mice per group with similar tumor size (5-10 mm in diameter) were selected for the in vivo MRI tests. After pre-contrast MRI acquisition (T1 and T2 high resolution 2D spin-echo and 3D gradient echo images), the test compounds were administered (25 μmol/kg iv.) and MRI was performed at 4 h and 24 h post injection. Maximum signal intensity was measured in the entire tumor area and in each post contrast image covering the whole tumor and the signal was compared to the pre-contrast images. At the end of MRI exams, all animals were sacrificed and the tumor, blood, liver, kidneys and femoral bone were removed and prepared for Gd assay by ICP-AES. […]
The mean signal intensity was measured within a region of interest (ROI) including the entire tumor, drawn by an operator on each MR image using dedicated software (MR Research Systems Ltd, Surrey UK). Signal intensity enhancement (Enh %) was determined as: Enh%=100*(SIx(t)−SI0)/SI0 […]

Chelated Complex 1: Gd chelated complex (four DTPA-Glu units on branched lysine linker) conjugated to the fibrin-binding peptide; MRI contrast agent (Ac-WQPCPAESWTFCWDPGGGK-NH2; disulfide 4-12; not fully specified (some residues); also: further groups not given here)
tumor signal enhancement: significant tumor signal enhancement
